In paper PMC8717171 (Saudi Journal of Biological Sciences, 2021):
Values after ≈ are worked out from the molar mass of the structure shown. Values joined by “and” are separate entries in the source; they are usually repeats but may differ in a detail not shown here. Identical values can stand only once. Like-named read-outs stand apart in the source and are kept apart here.

Experiments:
[1] = Antioxidant activity, DPPH free radical scavenging; type: biochemical; details: absorbance at 517 nm
Swiss-albino mice = details: mouse, in vivo, po; for Reaction time: 25 mg/kg
microbial strains = test: Antimicrobial disc diffusion, all test strains together; type: cell-based
butyrylcholinesterase = butyrylcholinesterase (Rattus norvegicus, UniProt Q9JKC1); test: In-vitro anti-butyrylcholinesterase activity; type: biochemical
acetylcholinesterase = target: T1, acetylcholinesterase (Rattus norvegicus, UniProt P37136); test: In-vitro anti-acetylcholinesterase activity; type: biochemical
T1 sequence (P37136 32-614): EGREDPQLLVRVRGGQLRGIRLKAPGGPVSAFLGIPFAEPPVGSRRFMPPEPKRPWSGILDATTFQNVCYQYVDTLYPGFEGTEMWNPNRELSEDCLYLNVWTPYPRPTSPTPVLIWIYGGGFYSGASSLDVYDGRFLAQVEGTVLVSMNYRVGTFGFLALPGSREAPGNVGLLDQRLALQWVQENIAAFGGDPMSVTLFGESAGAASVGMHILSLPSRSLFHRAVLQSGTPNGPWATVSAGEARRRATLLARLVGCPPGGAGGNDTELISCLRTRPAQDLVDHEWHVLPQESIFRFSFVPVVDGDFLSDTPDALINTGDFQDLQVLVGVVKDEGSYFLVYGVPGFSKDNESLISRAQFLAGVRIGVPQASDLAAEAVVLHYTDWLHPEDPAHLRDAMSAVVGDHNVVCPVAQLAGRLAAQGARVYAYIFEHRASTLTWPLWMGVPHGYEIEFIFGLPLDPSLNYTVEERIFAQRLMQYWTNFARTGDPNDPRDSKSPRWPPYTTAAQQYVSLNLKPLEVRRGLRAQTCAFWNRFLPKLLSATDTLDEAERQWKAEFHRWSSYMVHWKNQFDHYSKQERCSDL

rat hind paw oedema = test: Anti-inflammatory activity, carrageenan-induced rat hind paw oedema; type: in vivo, Sprague Dawley rat; details: test compounds 100 mg/kg; for Mean paw edema (volume in ml) ± SEM: n = 5
mice = test: Peripheral anti-nociception, acetic acid-induced writhing; type: in vivo, Mus musculus; details: for Number of Writhing (Mean ± SEM): counted for 15 min, n = 5
Salmonella paratyphi = test: Disc diffusion; type: cell-based; details: standard Ciprofloxacin 5 µg/disc
Vibrio parahaemolyticus = test: Disc diffusion; type: cell-based; details: standard Ciprofloxacin 5 µg/disc
Bacillus megaterium = test: Disc diffusion; type: cell-based; details: standard Ciprofloxacin 5 µg/disc
Escherichia coli = test: Disc diffusion; type: cell-based; details: standard Ciprofloxacin 5 µg/disc
Sarcina lutea = test: Disc diffusion; type: cell-based; details: standard Ciprofloxacin 5 µg/disc
Vibrio mimicus = test: Disc diffusion; type: cell-based; details: standard Ciprofloxacin 5 µg/disc
Pseudomonas aeruginosa = test: Disc diffusion; type: cell-based; details: standard Ciprofloxacin 5 µg/disc
Salmonella typhi = test: Disc diffusion; type: cell-based; details: standard Ciprofloxacin 5 µg/disc
Shigella dysenteriae = test: Disc diffusion; type: cell-based; details: standard Ciprofloxacin 5 µg/disc
Shigella boydii = test: Disc diffusion; type: cell-based; details: standard Ciprofloxacin 5 µg/disc
Bacillus subtilis = test: Disc diffusion; type: cell-based; details: standard Ciprofloxacin 5 µg/disc
Saccharomyces cerevisiae = test: Disc diffusion; type: cell-based; details: standard Ciprofloxacin 5 µg/disc
Aspergillus niger = test: Disc diffusion; type: cell-based; details: standard Ciprofloxacin 5 µg/disc
Bacillus cereus = test: Disc diffusion; type: cell-based; details: standard Ciprofloxacin 5 µg/disc
Candida albicans = test: Disc diffusion; type: cell-based; details: standard Ciprofloxacin 5 µg/disc
Staphylococcus aureus = test: Disc diffusion; type: cell-based; details: standard Ciprofloxacin 5 µg/disc
[2] = test system: non-enzymatic lipid peroxidation in rat brain homogenate; test: In-vitro lipid peroxidation inhibition; details: Fe2+-ascorbate

Chain of butyrylcholinesterase (Q9JKC1 24-597): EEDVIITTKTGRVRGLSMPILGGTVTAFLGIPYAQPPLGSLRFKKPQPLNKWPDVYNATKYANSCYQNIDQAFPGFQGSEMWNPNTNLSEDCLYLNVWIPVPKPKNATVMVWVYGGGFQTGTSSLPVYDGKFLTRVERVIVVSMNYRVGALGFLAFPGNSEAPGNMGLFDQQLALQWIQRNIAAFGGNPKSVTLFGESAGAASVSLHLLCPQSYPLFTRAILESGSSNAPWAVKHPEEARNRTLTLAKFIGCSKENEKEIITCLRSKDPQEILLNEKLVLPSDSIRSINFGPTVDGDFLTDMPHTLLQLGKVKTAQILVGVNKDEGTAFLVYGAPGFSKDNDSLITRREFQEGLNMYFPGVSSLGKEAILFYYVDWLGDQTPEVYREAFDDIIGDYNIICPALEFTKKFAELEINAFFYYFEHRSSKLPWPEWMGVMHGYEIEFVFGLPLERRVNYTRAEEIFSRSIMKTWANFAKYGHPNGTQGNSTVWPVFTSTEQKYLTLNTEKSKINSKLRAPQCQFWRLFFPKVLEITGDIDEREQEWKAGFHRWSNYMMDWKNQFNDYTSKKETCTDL

SMILES | IC50 (antioxidant activity, DPPH scavenging) [1] [µg/mL] | antimicrobial activity (in words) (microbial strains) | % Paw edema inhibition (rat hind paw oedema; 1st hour) [%] | Mean paw edema (volume in ml) ± SEM (rat hind paw oedema; 1st hour) [mL] | % Paw edema inhibition (rat hind paw oedema; 2nd hour) [%] | Mean paw edema (volume in ml) ± SEM (rat hind paw oedema; 2nd hour) [mL] | % Paw edema inhibition (rat hind paw oedema; 3rd hour) [%] | Mean paw edema (volume in ml) ± SEM (rat hind paw oedema; 3rd hour) [mL] | % Paw edema inhibition (rat hind paw oedema; 4th hour) [%] | Mean paw edema (volume in ml) ± SEM (rat hind paw oedema; 4th hour) [mL] | % of Inhibition of Writhing (mice; 25 mg/kg) [%] | Number of Writhing (Mean ± SEM) (mice; 25 mg/kg) | % of Inhibition of Writhing (mice; 50 mg/kg) [%] | Number of Writhing (Mean ± SEM) (mice; 50 mg/kg) | Reaction time (Swiss-albino mice) | other results
Cc1cc(C(C)(C)C)c(O)c(C(C)(C)C)c1 [BHT, tert-butyl-1-hydroxytoluene, reference compound] | 14.44 (≈ 65.5 µM) | – | – | – | – | – | – | – | – | – | – | – | – | – | – | –
CN1CC[C@]23c4c5ccc(O)c4O[C@H]2[C@@H](O)C=C[C@H]3[C@H]1C5 [morphine, Morphine, reference compound] | – | – | – | – | – | – | – | – | – | – | – | – | – | – | – | % Elongation value (Swiss-albino mice): 48.08% and 82.5%
Clc1ccc(Cn2c(-c3ccc(Cl)cc3)nc3ccccc32)cc1 [Compound 3b, 1-(4-chlorobenzyl)-2-(4-chlorophenyl)-1H-benzimidazole] | – | did not show any antimicrobial activity | 38.98 | 0.724 ± 0.057 | 40.16 | 0.73 ± 0.029 | 41.98 | 0.76 ± 0.048 | 44.68 | 0.78 ± 0.056 | 26.87 | 19.6 ± 0.797 | 13.43 | 23.2 ± 0.464 | – | IC50 (butyrylcholinesterase): 66.3 µM; IC50 (acetylcholinesterase): 187 µM
COc1ccc(Cn2c(-c3ccc(OC)cc3)nc3ccccc32)cc1 [Compound 3c, 1-(4-methoxybenzyl)-2-(4-methoxyphenyl)-1H-benzimidazole] | 634.22 (≈ 1840 µM) | did not show any antimicrobial activity | 35.59 | 0.758 ± 0.035 | 35.25 | 0.79 ± 0.043 | 37.40 | 0.82 ± 0.022 | 37.59 | 0.88 ± 0.046 | 54.10 | 12.3 ± 0.831 | 42.54 | 15.4 ± 0.697 | 9.8 ± 0.86 and 10.2 ± 0.86 and 10.6 ± 0.68 and 11.8 ± 0.66 | % Elongation value (Swiss-albino mice; 50 mg/kg): 42.86% and 44.19% and 50% and 44.23%
Clc1ccc(-c2nc3ccccc3[nH]2)cc1 [Compound 4, 2-(4-chlorophenyl)-1H-benzimidazole] | 114.18 (≈ 499 µM) | – | 28.81 | 0.838 ± 0.051 | 27.87 | 0.88 ± 0.027 | 29.77 | 0.92 ± 0.017 | 36.88 | 0.89 ± 0.033 | 2.99 | 26.0 ± 1.001 | 13.81 | 23.1 ± 0.843 | 9.4 ± 0.93 and 8.8 ± 1.24 and 10.6 ± 0.68 and 12.6 ± 0.93 | Diameter of zone of inhibition (mm) (Salmonella paratyphi): 0 mm; Diameter of zone of inhibition (mm) (Vibrio parahaemolyticus): 7 mm; Diameter of zone of inhibition (mm) (Bacillus megaterium): 9 mm; Diameter of zone of inhibition (mm) (Escherichia coli): 10 mm; Diameter of zone of inhibition (mm) (Sarcina lutea): 7 mm; Diameter of zone of inhibition (mm) (Vibrio mimicus): 0 mm; Diameter of zone of inhibition (mm) (Pseudomonas aeruginosa): 8 mm; Diameter of zone of inhibition (mm) (Salmonella typhi): 9 mm; Diameter of zone of inhibition (mm) (Shigella dysenteriae): 8 mm; Diameter of zone of inhibition (mm) (Shigella boydii): 9 mm; Diameter of zone of inhibition (mm) (Bacillus subtilis): 9 mm; Diameter of zone of inhibition (mm) (Saccharomyces cerevisiae): 9 mm; Diameter of zone of inhibition (mm) (Aspergillus niger): 10 mm; Diameter of zone of inhibition (mm) (Bacillus cereus): 7 mm; Diameter of zone of inhibition (mm) (Candida albicans): 0 mm; peripheral analgesic activity (in words) (mice; 25 mg/kg and 50 mg/kg): did not show any peripheral analgesic activity; Diameter of zone of inhibition (mm) (Staphylococcus aureus): 0 mm; IC50 (lipid peroxidation inhibition) [2]: 98.55 µg/mL (≈ 431 µM)
